Results from article PMC11050599, “Novel Tetracyclic Azaphenothiazines with the Quinoline Ring as New Anticancer and Antibacterial Derivatives of Chlorpromazine” (International Journal of Molecular Sciences, 2024).
Read-outs that look alike come from different tables or passages of the source.

Experiments:
PC3 (prostate cancer) = experiment: MTT assay, PC3 cells; type: cell-based, human; settings: for IC50: Homo sapiens, PC-3, MTT, 72 h, read-out: IC50 PC3; for SI PC3: SI = IC50 for normal cell line (HaCaT)/IC50 cancer cell line
Experimental: (§1) The human cell lines, such as A549 (lung cancer), MDA-MB-231 (breast cancer), MiaPaca-2 (pancreatic cancer), PC3 (metastatic prostate cancer), HCT-116 (colon carcinoma), and HaCaT (immortalized keratinocytes), were sourced from the American Type Culture Collection (ATCC) in Rockville, USA. Culturing conditions varied as follows: HCT116 cells were cultured in MEM (ThermoSci, Waltham, MA, USA), A549, MDA-MB-231, MiaPaca, HaCaT cells in DMEM High Glucose and PC3 cells were cultured in RPMI (Biowest SAS, Nuaillé, France). The growth medium consisted of 10% fetal bovine serum (FBS, Sigma-Aldrich, St. Louis, MO, USA), 20 mM HEPES (Biowest, Nuaillé, France), and antibiotics (100 U/mL of penicillin and 100 μg/mL of streptomycin) from Gibco, Grand Island, NY, USA. […] These compounds were added to 96-well plates containing study cells (1 × 10^4 cells per well) and incubated for 72 h. […] Cell absorbance results were incorporated into the formula for calculating the relative MTT level (%), enabling the assessment of cell viability following exposure to the test compounds. The cell viability percentage represents the MTT reduction in cells treated with the test compounds compared to the control sample, where only the medium was added to the cells.

A549 (lung cancer) = experiment: MTT assay, A549 cells; type: cell-based, human; settings: for IC50: Homo sapiens, A549, MTT, 72 h, mean SD, read-out: IC50 A549
Experimental: as §1

[1] = test system: MDA-MB-231 (breast cancer); experiment: MTT assay, MDA-MB-231 cells; type: cell-based, human; settings: for IC50: Homo sapiens, MDA-MB-231, MTT, 72 h, MDA-MB231, read-out: IC50 MDA
Experimental: as §1

E. coli ATCC 25922 = experiment: MIC broth microdilution; type: cell-based; settings: Escherichia coli, ATCC25922; 19 h, 35 °C; read-out: MIC E. coli ATCC 25922
Excerpt: (§2) To evaluate the antibacterial effectiveness of chloroquinobenzothiazine derivatives, various bacterial strains from international microbe collections such as the American Type Culture Collection (ATCC) and the National Collection of Type Culture (NCTC) were examined, alongside a panel of clinical rods. This included two Gram-negative organisms, E. coli ATCC 25922 and P. aeruginosa ATCC 15442, and a series of six Gram-positive strains: S. aureus NCTC 4163; S. aureus ATCC 29213, 25923, and 6538; and S. epidermidis ATCC 12228 and 35984. […] The MIC was determined using the two-fold serial broth microdilution method in 96-well microtitration plates containing Mueller-Hinton II broth medium (Becton Dickinson, Franklin Lakes, NJ, USA). The final inoculum for all tested bacteria was adjusted to […] (colony-forming units per milliliter). The stock solution of the tested compounds was prepared in dimethyl sulfoxide (DMSO) and diluted to a maximum of 1% solvent content with a sterile medium.

S. aureus ATCC 25923 = experiment: MIC broth microdilution; type: cell-based; settings: Staphylococcus aureus, ATCC25923; 19 h, 35 °C; read-out: MIC S. aureus ATCC 25923
Excerpt: as §2

S. aureus NCTC 4163 = experiment: MIC broth microdilution; type: cell-based; settings: Staphylococcus aureus, NCTC4163; 19 h, 35 °C; read-out: MIC S. aureus NCTC 4163
Excerpt: as §2

[2] = test system: S. epidermidis ATCC 35984; experiment: MIC broth microdilution; type: cell-based; settings: Staphylococcus epidermidis, ATCC35984; 19 h, 35 °C; read-out: MIC S. epidermidis ATCC 35984
Excerpt: as §2

S. aureus ATCC 29213 = experiment: MIC broth microdilution; type: cell-based; settings: Staphylococcus aureus, ATCC29213; 19 h, 35 °C; read-out: MIC S. aureus ATCC 29213
Excerpt: as §2

S. aureus ATCC 6538 = experiment: MIC broth microdilution; type: cell-based; settings: Staphylococcus aureus, ATCC6538; 19 h, 35 °C; read-out: MIC S. aureus ATCC 6538
Excerpt: as §2

[3] = test system: S. epidermidis ATCC 12228; experiment: MIC broth microdilution; type: cell-based; settings: Staphylococcus epidermidis, ATCC12228; 19 h, 35 °C; read-out: MIC S. epidermidis ATCC 12228
Excerpt: as §2

P. aeruginosa ATCC 15442 = experiment: MIC broth microdilution; type: cell-based; settings: Pseudomonas aeruginosa, ATCC15442; 19 h, 35 °C; read-out: MIC P. aeruginosa ATCC 15442
Excerpt: as §2

HCT116 (colon cancer) = experiment: MTT assay, HCT116 cells; type: cell-based, human; settings: for IC50: Homo sapiens, HCT-116, MTT, 72 h, read-out: IC50 HCT116; for SI HCT116: SI = IC50 for normal cell line (HaCaT)/IC50 cancer cell line
Experimental: as §1

A549 cells = experiment: Annexin V-FITC/PI apoptosis flow cytometry, A549; type: cell-based, human
Experimental: (§3) To analyze the number of cells in early apoptosis, late apoptosis, or necrosis, A549, MiaPaca-2, and HCT-116 cell lines were cultured in 6-well plates with a seeding density of 1 × 10^5 cells per well. These cells were then treated with selected compounds (4, 5, and 8) at their respective IC50 concentrations and incubated for 72 h. Subsequently, a commercially available kit, the FITC: Annexin V Apoptosis Detection Kit I from BD Biosciences Pharmingen in San Jose, CA, USA, was utilized to assess apoptosis. After 72 h the cells were harvested, washed, and labeled with Annexin V-FITC and propidium iodide (PI) following the manufacturer’s protocol (Becton Dickinson), as previously described. The stained cells were analyzed by flow cytometry. The cells were identified as early apoptotic (Annexin V+/PI−) or late apoptotic/necrotic (Annexin V+/PI+).

[4] = test system: MiaPaCa-2 (pancreas cancer); experiment: MTT assay, MiaPaCa-2 cells; type: cell-based, human; settings: for IC50: Homo sapiens, MIA PaCa-2, MTT, 72 h, read-out: IC50 MiaPaCa-2; for SI MiaPaCa-2: SI = IC50 for normal cell line (HaCaT)/IC50 cancer cell line
Experimental: as §1

[5] = test system: HaCaT (immortalized human keratinocytes); experiment: MTT assay, HaCaT normal cells; type: cell-based; settings: Homo sapiens, HaCaT, MTT, 72 h, normal cells
Experimental: as §1

HCT116 cells [6] = experiment: Cell cycle analysis by flow cytometry, HCT116; type: cell-based, human; settings: IC50, 24 h, compared to the control
Experimental: In brief, cells were seeded at a density of 1 × 10^5 cells/well on a six-well plate and allowed to adhere for 24 h. […] Both population cells (the attached and detached) were collected and centrifuged at 400× g for 5 min at 4 °C. After centrifugation, the cells were washed twice with 0.9% NaCl and subsequently fixed in 500 μL of 70 % cold ethanol overnight.
Before analysis, the fixed cells underwent another centrifugation step at 850× g for 5 min at 4 °C and were washed with PBS. Following the washes, the cells were incubated with 50 μL of RNase (100 μg/mL) and 200 μL of propidium iodide (PI) (50 μg/mL) at 37 °C for 30 min in the dark. Finally, 100 μL of PBS was added to each sample. Flow cytometry (Becton Dickinson FACS Verse, Franklin Lakes, NJ, USA) was then used to analyze the cell cycle distribution, identifying cells in various stages including sub-G1, G0/G1, S, and G2/M phases. Each assay was performed in quadruplicate.

HCT116 cells [7] = experiment: Annexin V-FITC/PI apoptosis flow cytometry, HCT116; type: cell-based, human
Experimental: as §3

[8] = SI = IC50 for normal cell line (HaCaT)/IC50 cancer cell line
[9] = representative dot plot, Figure 4A, IC50, 72 h
[10] = representative dot plot, Figure 4C, IC50, 72 h

Row | IC50 (PC3 (prostate cancer)) [µM] | IC50 (A549 (lung cancer)) [µM] | IC50 [1] [µM] | MIC (E. coli ATCC 25922) [µg/mL] | MIC (S. aureus ATCC 25923) [µg/mL] | MIC (S. aureus NCTC 4163) [µg/mL] | MIC [2] [µg/mL] | MIC (S. aureus ATCC 29213) [µg/mL] | MIC (S. aureus ATCC 6538) [µg/mL] | MIC [3] [µg/mL] | MIC (P. aeruginosa ATCC 15442) [µg/mL] | IC50 (HCT116 (colon cancer)) [µM] | IC50 [4] [µM] | Compound | SI PC3 (PC3 (prostate cancer)) | SI HCT116 (HCT116 (colon cancer)) | SI MiaPaCa-2 [4] | IC50 ([5]; read-out: IC50 HaCaT (Table 3)) [µM] | also measured
1 | 48.6 ± 4.7 | 9.45 ± 1.3 | > 100 | > 256 | > 256 | > 256 | > 256 | > 256 | > 256 | > 256 | > 256 | > 100 | > 100 | Cc1ccc(S(=O)(=O)NCCCCN2c3cc(Cl)ccc3Sc3cc4ccccc4nc32)cc1 [Compound 25, N-(4-(8-Chloroquino[3,2-b]benzo[1,4]thiazin-6-yl)butyl)-4-methylbenzenesulfonamide] | 2.0 | 1.0 | 1.0 | < 100 | SI MDA [1, 8]: 1.0; cells in late apoptosis or necrosis, A549 (A549 cells; compound at IC50, 72 h): 82%; A549: Alive (A549 cells; [9]): 16.32%; A549: Early Apoptotic (A549 cells; [9]): 0.60%; A549: Necrotic (A549 cells; [9]): 32.75%; A549: Necrotic/Late Apoptotic (A549 cells; [9]): 50.34%; IC50 ([5]; read-out: IC50 HaCaT (Table 4)): > 100 µM
2 | > 100 | 30.5 ± 8.3 | > 100 | > 256 | > 256 | > 256 | > 256 | > 256 | > 256 | > 256 | > 256 | 0.7 ± 0.08 | 98.4 ± 5.6 | CS(=O)(=O)NCCCCN1c2cc(Cl)ccc2Sc2cc3ccccc3nc21 [Compound 23, N-(4-(8-Chloroquino[3,2-b]benzo[1,4]thiazin-6-yl)butyl)methanesulfonamide] | 1.0 | 143 | 1.0 | > 100 | increase in the cell amount at the sub-G1 phase, HCT116 (HCT116 cells [6]): 11 fold; increase in the number of cells in the G2/M phase, HCT116 (HCT116 cells [6]): approximately 1.3 fold; increase in the number of cells in the S phase, HCT116 (HCT116 cells [6]): approximately 2 fold; SI A549 (A549 (lung cancer); [8]): 3.3; cells in late apoptosis/necrosis, HCT116 (HCT116 cells [7]; compound at IC50, 72 h): 93%; HCT-116: Alive (HCT116 cells [7]; [10]): 3.42%; HCT-116: Early Apoptotic (HCT116 cells [7]; [10]): 0.76%; HCT-116: Necrotic (HCT116 cells [7]; [10]): 3.85%; HCT-116: Necrotic/Late Apoptotic (HCT116 cells [7]; [10]): 91.97%
